In patent publication US10570176B2, “Anti-hepatitis B virus X protein polypeptide pharmaceutical” (priority 2015, dated 2020):
Non-standard residues stand in square brackets, D forms with d. Residues, ends and D or L forms follow the SMILES beside them.

Key:
HepG2.2.15 cells = assay: HBeAg secretion ELISA in HepG2.2.15 cells; format: cell-based; details: 0.1, 1, 10, 100 μM
Protocol: 3. Analysis of function of D-TTK001 on HBeAg secreation in liver cancer cells utilizing enzyme-linked immunosorbent assay (ELISA)
(i) Biosafety cabinet was ultraviolet sterilized for 30 min and purged for 30 min; DMEM/F12 (1:1) culture medium containing 15% fetal bovine serum, HepAD38 cells (or HepG2.2.15 cells) were taken out, sterilized with 75% alcohol, and placed in the biosafety cabinet.
(ii) Under aseptic conditions, discard old culture medium, add 3 mL 1×PBS each time, wash twice, add 1 mL 0.25% trypsin, the cells were digested until cell rounding as observed in microscope. Add 5 mL culture medium, dispense cells, count with hemocytometer, and dilute with culture medium to a cell number of 1˜2×10^4 cells/mL.
(iii) Plating 96-well plate. Under aseptic conditions, discard old culture medium, add 3 mL 1×PBS each time, wash twice, add 1 mL 0.05% trypsin, the cells were digested until cell rounding as observed in microscope. Add 10 mL culture medium, dispense cells, count with hemocytometer, and dilute with DMEM/F12(1:1) culture medium, add 100 μL cell suspension into each well to a cell number of 1˜2×10^3 cells/mL. […]
(x) Stopping: add 50 μL of stop solution into each well, gently shake and mix, measure the result in ten minutes. Set wavelength of microplate reader to 450 nm, measure OD value for each well after zero setting with blank wells.

HBV transgenic mice = assay: Serum HBV DNA copy number in HBV transgenic mice, real-time PCR; format: in vivo; details: for effective rate (serum HBV DNA): tail i.v. daily
Description: HBV transgenic mice were purchased from Guangzhou Junketaite Pharmaceutical Technology Co., Ltd. The animal model is a 1.3 copies high expressing replicative form HBV whole-genome transgenic mice Tg (HBV 1.3 genome) Swb established using microinjection method by Guangzhou Junketaite Pharmaceutical Technology Co., Ltd. Serum HBsAg and HBeAg can be analyzed with common ELISA kit; serum HBV DNA of 93.93% positive transgenic mice is 10^4˜10^6 copy/mL; liver tissues in immunohistochemistry have HBsAg (cytoplasmic type) and HBcAg (karyotype) expression. […] This makes a good foundation for the transgenic model to be used in evaluating anti-HBV drugs.
Prepare D-TTK001 aseptically. Administer 2.5 mg/kg (10 mice) or 5.0 mg/kg (42 mice) based on mice weight through tail intravenous injection in a volume of 50 μL. Administer 50 μL of sterile PBS to blank control group (10 mice). Mice are 6-8 months old, half male and half female. Inject daily for 3 weeks (21 days in total). Take artery blood from mice tail before administration for future measurement of HBV DNA content in mice blood, record as T0 group. Take artery blood from mice tail after one week (T1+ group), two weeks (T2+ group), and three weeks (T3+ group) of administration. Take blood after one week of stopping administration (T4 group). Blood samples were standed in room temperature for 2-4 hours to prepare serum. Store samples in −80° C. refrigerator for future measurement of HBV DNA content in mice blood.
(i) Preparation of test samples: Take out the test samples from −80° C. refrigerator. Place it at room temperature for balancing. Take corresponding amount of reaction liquid, enzyme mix and internal standard by proportion (reaction liquid 38 μL per serving+enzyme mix 2 μL per serving+internal standard 0.2 μL per serving) according to numbers of test sample, negative control sample and reference sample, mix sufficiently as PCR-mix. Sample treatment (negative control, positive control quantitative reference and test samples are treated synchronously): Add 5 μL of cell nucleic releaser into each PCR reaction tube, then add 5 μL test sample into each tube, absorb back and forth for 3-5 times and mix; after more than 10 minutes interval, add 40 μL of PCR-mix into each tube, close the tubes with caps, centrifuge at 2000 rpm for 30 seconds.
Utilizing real time PCR HBV DNA assay kit manufactured by Sun Yat-sen University Daan Gene Co., Ltd. according to the manufacturer's specification as followed: Place PCR reaction tube into sample cell of PCR instrument, set negative control, positive control, quantitative references A-D and test sample in corresponding order, and then set sample name and concentration of quantitative reference. Selection of fluorescence detection channel: for example, in ABI 7300 instrument, i) select FAM channel (reporter: FAM, quencher: none) to detect HBV-DNA; ii) select HEX/VIC channel (reporter: HEX/VIC, quencher: none) to detect HBV-internal standard; iii) set passive reference as ROX.
Set analysis conditions: adjust start value, stop vale of Baseline and Value of Threshold according to analyzed image (arbitrary adjustable by user according to actual needs, start value can be 1˜10, stop value can be 5˜10, Value can be 0.01˜0.2) to optimize standard curve in “Std curve” window, i.e., correlation between −1.0˜−0.97. Select “Analyze” in “Analysis” menu for automatic result analysis. Record value (C) of unknown variable in “Tray” window. “C” indicates concentration or content of the sample.

CSCC[C@@H](NC(=O)[C@H](NC(=O)[C@@H](C)NC(=O)[C@@H](CO)NC(=O)CN)C(C)C)C(=O)N[C@H](Cc1ccccc1)C(=O)N[C@H](CO)C(=O)N[C@H](CO)C(=O)N[C@H](CCCCN)C(=O)N[C@H](CCC(=O)O)C(=O)N[C@H](CCCNC(=N)N)C(=O)NCC(=O)O [D-TTK001, Gly-D-Ser-D-Ala-D-Val-D-Met-D-Phe-D-Ser-D-Ser-D-Lys-D-Glu-D-Arg-Gly] (H-G[dS][dA][dV][dM][dF][dS][dS][dK][dE][dR]G-OH; N-terminus and C-terminus assumed)
Minimum effective dose on HBeAg secretion levels (HepG2.2.15 cells): 0.1 µM
copy number of HBV DNA in serum (HBV transgenic mice; 2.5 mg/kg and 5.0 mg/kg, tail intravenous injection): clearly reduced
effective rate (serum HBV DNA) (HBV transgenic mice; 2.5 mg/kg group, from one week (T1+ group), 3 out of 10 mice): 30%
effective rate (serum HBV DNA) (HBV transgenic mice; 5.0 mg/kg group, 23 out of 42 mice): 54.8%
time dependent decreasing effective rate (HBV transgenic mice; 5.0 mg/kg group, 7 out of 23 mice): 30.4%
effective rate (serum HBV DNA) from one week (T1+ group) (HBV transgenic mice; 5.0 mg/kg group, 18 out of 39 mice): 46.2%
